From US10149860B2, “Compositions and methods for treating alzheimer's disease and other tauopathies” (Board of Trustees Of The Leland Stanford Junior University, priority 2013, dated 2018) come the findings set out here.

One assay concerns PAR-1. The assay is described as follows: Western blot of PAR-1-Myc levels in third instar larvae body-wall muscle extracts. Format: in vivo, Drosophila. The note with it: Mhc-Gal4>PAR-1 larvae; WP1130 10 μM vs DMSO; FIG. 26b. On the procedure:
(§1) For Western blot analysis, the primary antibodies used were: anti-PAR-1 (1:8,000), anti-phospho-PAR-1 (1:1,000); anti-HA (1:2,000, Sigma); anti-Myc (1:1,000, Millipore); anti-GFP (1:2,000, Abcam); anti-Dlg (4F3) (1:1,000, Hybridoma bank, University of Iowa); 12E8 (1:8,000); anti-Actin (1:40,000, Sigma); anti-Gapdh (1:3,000, Abcam).
(§2) Either WP1130 (Selleck Chemicals) or DMSO (Sigma) was added to fly food at 2, 5 or 10 μM concentrations. Feeding third instar larvae were collected from the drug-containing food and dissected in PBS. Besides Mhc-GAL4>UAS-APP, which were raised at 29° C., all flies were raised at 25° C.
(§3) To investigate whether WP1130 may act as an inhibitor of FAF to control PAR-1 activity in vivo, Mhc-Gal4>PAR-1 and control Mhc-Gal4/+ animals were fed with fly food containing WP1130 or DMSO alone. […]
(§4) (a) Quantification of the pharmacological effect of WP1130 on the total number of boutons on muscle 6/7 of A3, after normalization with bouton area. […] (c) Quantification of NMJ bouton number showing rescue by WP1130 (10 μM) of the bouton-loss phenotypes induced by Mhc-Gal4>UAS-htauM or Mhc-Gal4>UAS-htauM+UAS-PAR-1. […] (e) Quantification of NMJ bouton number showing rescue by WP1130 (10 μM) of the bouton-loss phenotypes induced the expression APP/Aβ-42. […]
In general terms: Immunoblotting shows a protein as a band on a membrane.

The next assay addresses T1, FAF (Drosophila melanogaster, UniProt P55824).
T1 construct: Mhc-Gal4>PAR-1 and control Mhc-Gal4/+ animals were fed with fly food containing WP1130 or DMSO alone; endogenous in cells; host or cells: Drosophila third instar larvae (body-wall muscle / NMJ)
Put plainly: Drosophila larval NMJ bouton number after feeding WP1130 in fly food. Format: in vivo. The protocol: For immunohistochemistry, third instar lavae were selected, dissected in PBS, fixed in 4% formaldehyde (Ted Pella) in PBS for about 15 minutes and washed 3× in 0.1% Triton X-100 in PBS. The primary antibodies used were: anti-PAR-1 (1:10,000), anti-phospho-PAR-1 (1:1,000); anti-Slimb (1:1,000); anti-Dlg (4F3) (1:50, Hybridoma bank, University of Iowa); anti-GFP (1:8,000, Abcam); anti-dtau (1:3). Primary antibody incubation was performed at 4° C. overnight. All secondary antibodies (Molecular Probes) and Texas Red or FITC-conjugated anti-HRP (Jackson ImmunoResearch Laboratories) were used at 1:200 and incubated for about 2 hours at room temperature. Laval preparations were mounted in SlowFade Antifade kit (Invitrogen). Confocal images were collected from Leica confocal microscopes SP2 and SP5 equipped with 40× or 100× inverted NX oil lens. Leica Application Suite Advanced Fluorescence software was used to capture, process and analyze images. Analysis of the NMJ was performed essentially as described^51. All crosses for genetic interaction studies in the NMJ were performed at 25° C.
as §2
Fly eye sizes were measured on multiple samples (n>15) from both control and experimental genotypes using the NIH ImageJ software. Average eye size was presented as a normalized percentage of control eye size. We performed two-tailed unpaired Student's t-test to analyze the significance of differences between two groups. Quantification of NMJ bouton number was performed according to previously described protocols (Lee et al., 2010). NMJ bouton number is normalized by muscle area at muscle 6/7 in abdominal segment A3. The experimental genotypes were normalized relative to the control genotype.
To investigate whether WP1130 may act as an inhibitor of FAF to control PAR-1 activity in vivo, Mhc-Gal4>PAR-1 and control Mhc-Gal4/+ animals were fed with fly food containing WP1130 or DMSO alone. […] Given the potent effect of WP1130 in modulating PAR-1 protein level, whether WP1130 would affect the phosphorylation of tau was tested.
(a) Quantification of the pharmacological effect of WP1130 on the total number of boutons on muscle 6/7 of A3, after normalization with bouton area. Indicated genotype flies were incubated with 0, 2, 5 or 10 μM concentrations of WP1130. (b) Western blot analyses showing the effects of WP1130 (10 μM) on PAR-1-Myc levels in third instar larvae body-wall muscle extracts. Values represent normalized PAR-1-Myc levels. Actin serves as loading control. (c) Quantification of NMJ bouton number showing rescue by WP1130 (10 μM) of the bouton-loss phenotypes induced by Mhc-Gal4>UAS-htauM or Mhc-Gal4>UAS-htauM+UAS-PAR-1. (d) Western blot analysis showing reduced 12E8-positive htauM level by WP1130 (10 μM). Values represent normalized 12E8-positive htauM levels. Actin serves as loading control. (e) Quantification of NMJ bouton number showing rescue by WP1130 (10 μM) of the bouton-loss phenotypes induced the expression APP/Aβ-42. (f) A model depicting possible signaling pathways linking APP/Aβ-42 to synaptic dysfunction and synapse loss seen in AD. Dashed lines indicate potential direct regulations.

In assay [1] the test system is tau phosphorylation at the PAR-1/MARK target site (S262). Put plainly: Western blot of p-Tau (S262) in brain extracts of PS19 tauopathy mice after ICV infusion. Format: in vivo. The following applies: relative to vehicle controls, FIG. 27. The protocol:
(§5) To test the effects of WP1130 in a mammalian model of AD, the drug was administered to Tauopathy mice (PS19) expressing the pathogenic P301S human tau transgene. Mice received intracerebroventricular (ICV) infusion of either WP1130 or vehicle controls and MARK4 and p-Tau levels were assessed by western blot. […] Tauopathy mice (PS19) expressing the pathogenic P301S human tau transgene were treated with vehicle (#1, 2, 4, 6, 12) or WP1130 (#5, 8, 13, 14, 15) by intracerebroventricular (ICV) infusion, and brain extracts were subjected to Western blot analysis with the indicated antibodies. Actin serves as a loading control, and T14 anti-Tau antibody measures levels of total tau. Note the reduction of MARK4 and p-Tau (S262) protein levels by drug treatment.

The test system of assay [2] is htau phosphorylation at 12E8 sites. The assay is described as follows: Western blot of 12E8-positive htauM level in WP1130-fed flies. Format: in vivo, Drosophila. The following applies: WP1130 10 μM vs DMSO; FIG. 26d. The protocol: as §1, §2, §3, §4
In the next assay the test system is PS19 mice. Put plainly: Passive avoidance test in PS19 tauopathy mice. Format: in vivo. The following applies: WP1130-treated PS19 mice vs wt and vehicle treated PS19 mice; FIG. 28. The protocol:
The passive avoidance test was used to test whether WP1130 could rescue the learning and memory deficits expressed in the PS19 mice. During training, the animals were subjected to electric shock on the foot in the dark chamber. During testing, the trained animals were placed in the light chamber and the time it took the animals to enter the dark chamber (latency time) was recorded. […] (Top) A diagram showing the passive-avoidance test, in which animals were allow to freely moving between the light and dark chambers during habituation. During training, the animals were subjected to electric shock on the foot in the dark chamber. During testing, the trained animals were placed in the light chamber and the time it took the animals to enter the dark chamber (latency time) was recorded. (Bottom) Statistical analysis of the latency times of vehicle-treated WT control, vehicle-treated PS19 tauopathy mice, and drug-treated PS19 tauopathy during the habituation, training, and testing periods. ** indicates P<0.01 in Student's t-test.

Assay [3] has as its system endogenous tau phosphorylation at the MARK sites. Put plainly: Western blot of endogenous tau phosphorylation (12E8 antibody) in HEK 293T cells. The note with it: 0, 2, 5 and 10 μM WP1130 for 12 h, FIG. 25b. Format: cell-based, human. The protocol: (§6) HEK 293T cells transfected with the hMARK4-HA plasmids were treated with 5 μM WP1130 for 8 h and subsequently used for western blot analysis. Actin serves as loading control. […] Cultured HEK 293T cells were treated with 0, 2, 5 and 10 μM WP1130 for 12 h, and used for western blot analysis. Actin serves as loading control.

In assay [4] the test system is MARK4. The assay is described as follows: Western blot of MARK4 stability in HEK 293T cells transfected with hMARK4-HA. Format: cell-based, human. The note with it: HEK 293T cells with hMARK4-HA; 5 μM WP1130 for 8 h; FIG. 25a. The protocol:
as §6

Assay [5] has as its system MARK4. The assay is described as follows: Western blot of MARK4 in brain extracts of PS19 tauopathy mice after ICV infusion. Format: in vivo. The following applies: relative to vehicle controls, FIG. 27. The protocol:
as §5

T1 sequence (P55824 whole entry, the tested form may be a part): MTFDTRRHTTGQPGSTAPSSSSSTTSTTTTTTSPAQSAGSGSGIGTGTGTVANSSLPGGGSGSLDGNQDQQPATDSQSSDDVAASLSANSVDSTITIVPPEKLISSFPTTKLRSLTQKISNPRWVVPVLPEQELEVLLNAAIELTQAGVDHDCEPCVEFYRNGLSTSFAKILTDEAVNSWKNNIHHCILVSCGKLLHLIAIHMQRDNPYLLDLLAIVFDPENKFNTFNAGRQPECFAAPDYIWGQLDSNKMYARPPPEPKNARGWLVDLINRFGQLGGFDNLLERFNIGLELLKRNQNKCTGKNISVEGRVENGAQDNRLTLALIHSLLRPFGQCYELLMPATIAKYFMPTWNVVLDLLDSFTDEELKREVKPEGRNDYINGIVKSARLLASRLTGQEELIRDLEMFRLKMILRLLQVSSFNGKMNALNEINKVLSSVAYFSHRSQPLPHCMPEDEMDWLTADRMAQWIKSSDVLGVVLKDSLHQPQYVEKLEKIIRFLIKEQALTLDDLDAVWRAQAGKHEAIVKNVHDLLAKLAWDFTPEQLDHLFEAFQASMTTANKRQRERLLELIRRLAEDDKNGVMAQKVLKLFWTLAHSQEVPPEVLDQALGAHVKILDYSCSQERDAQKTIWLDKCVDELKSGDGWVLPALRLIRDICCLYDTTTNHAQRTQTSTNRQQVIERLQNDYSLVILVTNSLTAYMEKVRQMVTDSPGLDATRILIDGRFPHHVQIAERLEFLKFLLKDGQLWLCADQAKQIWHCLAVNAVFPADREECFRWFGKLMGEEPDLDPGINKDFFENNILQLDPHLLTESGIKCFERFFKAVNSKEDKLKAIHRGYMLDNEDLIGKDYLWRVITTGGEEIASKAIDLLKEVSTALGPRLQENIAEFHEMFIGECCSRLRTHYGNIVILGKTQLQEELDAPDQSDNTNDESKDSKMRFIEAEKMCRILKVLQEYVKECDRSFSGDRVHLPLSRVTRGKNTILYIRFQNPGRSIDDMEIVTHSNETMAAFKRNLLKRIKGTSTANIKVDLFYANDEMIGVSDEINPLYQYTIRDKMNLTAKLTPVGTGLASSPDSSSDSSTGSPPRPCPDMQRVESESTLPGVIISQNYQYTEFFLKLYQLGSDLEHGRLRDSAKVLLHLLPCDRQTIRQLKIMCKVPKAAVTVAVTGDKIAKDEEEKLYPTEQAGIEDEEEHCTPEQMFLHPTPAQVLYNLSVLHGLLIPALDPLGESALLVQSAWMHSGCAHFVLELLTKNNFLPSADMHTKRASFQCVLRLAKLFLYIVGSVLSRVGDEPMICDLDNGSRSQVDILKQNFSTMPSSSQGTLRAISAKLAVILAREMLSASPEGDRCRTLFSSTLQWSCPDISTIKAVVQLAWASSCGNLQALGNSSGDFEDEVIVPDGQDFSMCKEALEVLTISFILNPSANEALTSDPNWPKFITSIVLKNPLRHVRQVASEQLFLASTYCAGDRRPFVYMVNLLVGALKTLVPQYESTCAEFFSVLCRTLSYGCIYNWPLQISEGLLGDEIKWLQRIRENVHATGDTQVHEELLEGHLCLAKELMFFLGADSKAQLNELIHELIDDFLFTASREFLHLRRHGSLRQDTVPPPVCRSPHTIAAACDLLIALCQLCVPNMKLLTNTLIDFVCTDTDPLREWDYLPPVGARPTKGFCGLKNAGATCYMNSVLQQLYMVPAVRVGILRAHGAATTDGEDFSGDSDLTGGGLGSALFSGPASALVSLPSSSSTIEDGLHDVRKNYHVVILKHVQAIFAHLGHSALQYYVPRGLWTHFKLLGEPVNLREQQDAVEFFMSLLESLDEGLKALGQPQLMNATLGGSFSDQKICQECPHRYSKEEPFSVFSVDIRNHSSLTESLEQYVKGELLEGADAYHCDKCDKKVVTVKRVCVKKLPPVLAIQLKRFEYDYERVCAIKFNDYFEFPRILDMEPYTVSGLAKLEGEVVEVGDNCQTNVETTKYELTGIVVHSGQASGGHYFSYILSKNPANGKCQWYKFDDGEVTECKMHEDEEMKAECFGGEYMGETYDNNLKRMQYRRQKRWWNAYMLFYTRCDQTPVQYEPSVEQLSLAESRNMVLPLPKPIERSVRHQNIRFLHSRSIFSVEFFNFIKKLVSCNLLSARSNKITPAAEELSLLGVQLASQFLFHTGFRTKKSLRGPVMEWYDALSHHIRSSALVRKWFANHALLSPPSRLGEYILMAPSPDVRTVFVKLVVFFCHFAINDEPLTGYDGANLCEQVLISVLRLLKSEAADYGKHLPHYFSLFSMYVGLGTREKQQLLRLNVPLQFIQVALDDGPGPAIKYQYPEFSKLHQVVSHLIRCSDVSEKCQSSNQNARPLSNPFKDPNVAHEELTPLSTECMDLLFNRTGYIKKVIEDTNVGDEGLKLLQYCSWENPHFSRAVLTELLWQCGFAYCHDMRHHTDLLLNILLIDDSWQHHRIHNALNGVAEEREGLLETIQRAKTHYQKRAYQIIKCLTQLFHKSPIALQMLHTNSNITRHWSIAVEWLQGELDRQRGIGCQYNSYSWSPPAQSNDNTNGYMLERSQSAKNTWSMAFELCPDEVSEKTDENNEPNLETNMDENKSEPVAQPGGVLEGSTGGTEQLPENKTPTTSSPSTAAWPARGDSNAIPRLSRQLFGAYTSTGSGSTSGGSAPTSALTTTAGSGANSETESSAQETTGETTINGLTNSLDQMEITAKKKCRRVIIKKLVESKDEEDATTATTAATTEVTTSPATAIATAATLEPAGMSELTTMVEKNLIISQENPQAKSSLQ

For `CCC[C@H](NC(=O)/C(C#N)=C/c1cccc(Br)n1)c1ccccc1` [WP1130, (S,E)-3-(6-bromopyridin-2-yl)-2-cyano-N-(1-phenylbutyl)acrylamide], in the assay on PAR-1, the PAR-1 protein level entry is reported as “reducing PAR-1 protein level”. For the same compound, the “loss of NMJ bouton number caused by overexpression of PAR-1” value on FAF (Mhc-Gal4>PAR-1 larvae, WP1130 in fly food at 0, 2, 5 or 10 μM vs DMSO, FIG. 26a) is “highly effective in preventing the loss of NMJ bouton number”. In addition, at FAF (Mhc-Gal4>UAS-htauM+UAS-PAR-1, WP1130 10 μM vs DMSO, FIG. 26c), the “bouton-loss phenotype caused by the co-expression of PAR-1 and htauM” value is recorded as “partially suppressed”. Further, at FAF (WP1130 10 μM, FIG. 26e), the “bouton-loss phenotype caused by the postsynaptic toxicity of APP/Aβ-42” value was “effectively suppressed”. At FAF (WP1130 in fly food vs DMSO, FIG. 26a), the “synaptic-loss phenotype caused by postsynaptic co-expression of FAF and Slimb-ΔF” value is “blocked synaptic-loss phenotype”. In addition, the “bouton-loss phenotype induced by Mhc-Gal4>UAS-htauM” value at FAF (htauM alone, WP1130 10 μM, FIG. 26c) is “rescue”. Further, the phosphorylated tau level result in assay [1] is “significantly reduced”. The “htau phosphorylation at 12E8 sites” value in assay [2] is listed as “dramatically decreased”. Further, the “latency time to enter the dark chamber” value in the assay on PS19 mice is reported as “latency times comparable to that of wt”. The “endogenous tau phosphorylation at the MARK sites (12E8 antibody)” value in assay [3] is “decreased endogenous tau phosphorylation”. Moreover, the “stability of MARK4” value in the assay with MARK4 [4] is recorded as “decreases the stability of MARK4”. Also, the MARK4 level result in the assay with MARK4 [5] is “significantly reduced”.
